Reference: patent publication US10689702B2, “Biomarkers for diabetes” (The Chinese University of Hong Kong, priority 2012, dated 2020)

Tested on: cancer in type 2 diabetic patients
Test: Hazard ratios of drug use for cancer, 5-year prospective cohort (Hong Kong Diabetes Registry)
Format: in vivo, Chinese type 2 diabetic patients
Details: patients who did not use the drug 2.5 yr prior to enrolment
[1] = Model 1, adjusted for propensity scores
[2] = Model 2, adjusted for risk factors, use of other medications during follow-up and propensity score

| Molecule | HR(95% CI) for cancer, users versus non user [1] | HR(95% CI) for cancer, users versus non user [2] |
| --- | --- | --- |
| CN(C)C(=N)N=C(N)N [Metformin] | 0.38(0.25-0.56) | 0.39(0.25-0.61) |
| O=C1CSC(=O)N1 [TZDs, Thiazolidinedione] | 0.12(0.03-0.50) | 0.18(0.04-0.72) |
| Insulin | 0.48(0.31-0.73) | 0.58(0.38-0.89) |
